Reference: ChEMBL document CHEMBL1201862, “PubChem BioAssay data set” (2004)
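Assay format: 96-well plates, 48-hour exposure. GI50 marks 50% less growth.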 Calls of active or inactive are those of the source. No stated cut-off is given here; in the data, active = GI50 up to about 1.1 µM and inactive = higher. Peptide text beside a SMILES is read from it. * marks the point of attachment. Cbz = O=C(OCc1ccccc1)*

How the values were obtained:
Experiment in all cases: NCI anticancer screen, dose series, 48 h
[1] = system: HCT-116
[2] = system: HCT-15
[3] = system: BT-549
[4] = system: NCI-H522
[5] = system: SF-539
[6] = system: SK-MEL-2
[7] = system: SK-OV-3
[8] = system: U-251
[9] = system: NCI-H23
[10] = system: CCRF-CEM
[11] = system: HOP-92
[12] = system: OVCAR-4
[13] = system: NCI/ADR-RES
[14] = system: CAKI-1
[15] = system: SNB-75
[16] = system: T47D
[17] = system: A498
[18] = system: SK-MEL-5
[19] = system: Malme-3M
[20] = system: OVCAR-8

Compound	GI50 [1]	GI50 [2]	GI50 [3]	GI50 [4]	GI50 [5]	GI50 [6]	GI50 [7]	GI50 [8]	GI50 [9]	GI50 [10]	GI50 [11]	GI50 [12]	GI50 [13]	GI50 [14]	GI50 [15]	GI50 [16]	GI50 [17]	GI50 [18]	GI50 [19]	GI50 [20]
Cc1ccc(OP(=O)(Oc2ccc(C)cc2)N2C=Cc3ccccc3C2C#N)cc1 (stereo not given)	> 100 µM (inactive)	> 100 µM	> 100 µM (inactive)	48.8 µM (inactive)	> 100 µM (inactive)	> 100 µM (inactive)	> 100 µM (inactive)	> 100 µM (inactive)	> 100 µM (inactive)	> 100 µM (inactive)	> 100 µM (inactive)	> 100 µM (inactive)	> 100 µM (inactive)	> 100 µM (inactive)	> 100 µM (inactive)	> 100 µM (inactive)	> 100 µM (inactive)	> 100 µM (inactive)	82.8 µM (inactive)	> 100 µM (inactive)
O=C(O)CCC(NC(=O)OCc1ccccc1)C(=O)NC(Cc1c[nH]cn1)C(=O)O (stereo not drawn) (Cbz-Glu-His-OH; configuration not given here)	> 100 µM (inactive)	> 100 µM	> 100 µM (inactive)	> 100 µM (inactive)	> 100 µM (inactive)	> 100 µM (inactive)	> 100 µM (inactive)	> 100 µM (inactive)	> 100 µM (inactive)	> 100 µM (inactive)	> 100 µM (inactive)	> 100 µM (inactive)	> 100 µM (inactive)	> 100 µM (inactive)	> 100 µM (inactive)	> 100 µM (inactive)	> 100 µM (inactive)	> 100 µM (inactive)	> 100 µM (inactive)	> 100 µM (inactive)
CC1=C(/C=C/C(C)=C/C=C/C(C)=C/C(=O)Nc2ccc(O)cc2)C(C)(C)CCC1 [FENRETINIDE]	4.06 µM (inactive)	5.92 µM	6.52 µM (inactive)	0.929 µM (active)	1.05 µM (active)	7.33 µM (inactive)	6.68 µM (inactive)	4.65 µM (inactive)	2.06 µM (inactive)	0.057 µM (active)	2.97 µM (inactive)	3.94 µM (inactive)	2.71 µM (inactive)	5.06 µM (inactive)	7.03 µM (inactive)	2.7 µM (inactive)	4.73 µM (inactive)	4.15 µM (inactive)	4.94 µM (inactive)	3.61 µM (inactive)
CC(Cc1ccc(O)c(O)c1)C(C)Cc1ccc(O)c(O)c1 (stereo not given) [NORDIHYDROGUAIARETIC ACID]	17.3 µM (inactive)	> 38.9 µM	13.9 µM (inactive)	2.03 µM (inactive)	17.5 µM (inactive)	18.5 µM (inactive)	21.5 µM (inactive)	18.7 µM (inactive)	20.1 µM (inactive)	4.38 µM (inactive)	3.14 µM (inactive)	14.4 µM (inactive)	22.8 µM (inactive)	11.4 µM (inactive)	19.8 µM (inactive)	18.4 µM (inactive)	37 µM (inactive)	16.8 µM (inactive)	15.9 µM (inactive)	17.4 µM (inactive)
